The source of these data is US7910597B2, “Substituted quinazolines” (Shire LLC, priority 2006, dated 2011).

Each structure is given as a SMILES string. Counter-ions that a name gives are not always drawn. Like-named read-outs stand apart in the source and are kept apart here.

The nature of series [1]: Solubility in test media, saturated solutions, HPLC. The class given is physicochemical. The following applies: ca. 20° C.; for solubility at 20 min: thermodynamic from solid. Here is the method: Solubility studies were carried out on a number of anagrelide derivatives according to the present invention in various test media. The test media were; • a) singly distilled water (pH 5.0)—note no attempt was made to remove dissolved CO2. • b) 50 mM ammonium formate (pH 7.9) • c) 0.1 M hydrochloric acid (pH 0.6)
Calibration plots of HPLC peak area vs. concentration were obtained in MeOH or MeOH/DMSO over the range 1000-1 μg/ml for each substance at a temperature 20-22° C. The HPLC method used a reverse phase C18 column with a water (0.6% formic acid) and acetonitrile gradient. For the solubility studies, saturated solutions were prepared by dissolving in the desired medium with the aid of an ultrasonic bath for 20 minutes and the excess solid removed by centrifugation. The concentration of the substance in the supernatant liquid was determined from the measured peak area.

Series [2] is described as follows: Pharmacokinetics in the conscious dog model. The class given is in vivo. As to conditions: geometric mean ± % CV. As for the experimental part: A comparison of the pharmacokinetic profile in the dog of anagrelide and a representative 3-substituted analogue is shown below:—
Comparative Pharmacokinetics of Anagrelide, its Resultant Active Metabolite and a Representative 3-Substituted Analogue Follow 1 mg/kg iv in the Conscious Dog Model

For series [3] the following is noted: cited from earlier work.
The test system of series [4] is human phosphodiesterase III (PDE III). As to conditions: background, cited from earlier work; for IC50: read-out: IC50 as PDE III inhibitor.
The test system of series [5] is megakaryocytopoiesis (human cell-line). The following applies: background; cited from earlier work.
For series [6] the test system is unchanged. Put plainly: In vitro anti-megakaryocytic activity in a model of megakaryocytopoiesis (human cell-line). In kind it is cell-based. As for the experimental part:
Assessment of the in vitro anti-megakaryocytic activity—and potentially therefore the platelet lowering capability—of the 3-substituted analogues of anagrelide was conducted using a well established model of megakaryocytopoiesis (Cohen-Solal et at, Thromb. Haemost. 1997, 78:37-41 and Cramer et al, Blood, 1997, 89:2336-46). It can be readily seen that with anagrelide the benefit ratio (therapeutic to adverse effects) was comparatively low at 0.024:1 (after accounting for the predominant exposure to the cardioactive metabolite in vivo).

The subject of another series is dog heart rate. Put plainly: In vivo cardiovascular effects on dog heart rate. The source says:
(§1) A comparison of the in vivo cardiovascular effects of anagrelide, its active metabolite and a representative example of an improved analogue shown in the table below:—

The target of series [7] is human phosphodiesterase III (PDE III). Put plainly: In vitro PDE III inhibition (human enzyme). The class given is biochemical.
Series [8] deals with erythroid or myelomonocytic differentiation. As to conditions: stimulated by erythropoietin or granulocyte-macrophage colony-stimulating factor; cited from earlier work.
Series [9] in a line: In vitro metabolic stability in dog hepatocytes. In kind it is in vitro ADME. The source says:
(§2) This comparatively longer half-life for 3,3 dimethyl anagrelide observed in the dog was mirrored in an in vitro metabolic stability study in which it was clearly much more metabolically stable than anagrelide (see table below). Hepatic metabolism is known to be the principal mechanism of clearance of anagrelide in both animals and in man.

In the next series the test system is heart rate. Put plainly: In vivo cardiovascular effects on dog heart rate. The following applies: in vivo.
Description: as §1

A short description of series [10]: In vitro metabolic stability in human hepatocytes. In kind it is in vitro ADME.
Description: as §2

[11] abbreviates: Example 1 table, read-out: IC50 for anti-megakaryocytic (platelet lowering) activity.
The mark [12] stands for this setting: read-out: In vitro IC50 for anti-megakaryocytic effects (human cell-line).
Where [13] appears, read: Example 1 table, read-out: IC50 for PDE III inhibition (cardiovascular effects).
Where [14] appears, read: read-out: In vitro IC50 for PDE III inhibition (human enzyme).

Regarding `C=c1c(=O)[nH]c2n1Cc1c(ccc(Cl)c1Cl)N=2` [3-Methyleneanagrelide, 3-methyleneanagrelide], the “Solubility in hydrochloric acid (0.1M, pH 0.6)” value (“Solubility in hydrochloric acid” below) in series [1] (0.1M HCl, pH 0.6) amounted to 43 μg mL^−1. In addition, the “Solubility in ammonium formate (50 mM, pH 7.9)” value (“Solubility in ammonium formate” for short) in series [1] (ammonium formate 50 mM, pH 7.9) came to 5 μg mL^−1. The “Solubility in water (pH 5.0)” value in [1] (singly distilled water, pH 5.0) is listed as 9 μg mL^−1.

Regarding `O=C1NC2=Nc3ccc(Cl)c(Cl)c3CN2C1O` (stereo not shown) [3-hydroxy anagrelide, 3-hydroxyanagrelide], in series [2] (1 mg/kg), the AUC(0-t) (in general, exposure summed from dosing to a finite time, without extrapolation to infinity) was 179 ± 14 ng·h/mL; the Cmax (as a rule, the peak of the concentration-time curve) came out at 60.1 ± 14 ng/mL; the T1/2 amounted to 1.57 ± 24 h. Besides, the “In vivo exposure relative to parent drug” value in series [3] (after anagrelide treatment) was 2-3 fold. For the same compound, in [3] (background, patients), the Typical half-life is 2.5 h. Moreover, in [4] (more potent than anagrelide), the “Potency as PDE III inhibitor relative to anagrelide” value is “over 40 fold”. For the same compound, in series [5], the “Inhibition of megakaryocytopoiesis relative to parent drug (in words)” value is “no more potent than the parent drug”. The IC50 (commonly the concentration that gives 50% inhibition) in series [6] (setting [11]) turned out to be 44 nM. Also, the IC50 in [6] (setting [12]) is 44 nM. Further, in the series with dog heart rate, the “In vivo ED20 for effects on dog heart rate” value (“In vivo ED20 for effects” below) is 7.1 µg/kg and the “In vivo ED50 for effects on dog heart rate” value was determined as 11.72 ug/kg μg/kg. The IC50 in series [7] (setting [13]) turned out to be 0.7 nM. Moreover, the IC50 in series [7] (setting [14]) came out at 0.7 nM.

In the case of `Br.CC1(C)C(=O)NC2=Nc3ccc(Cl)c(Cl)c3CN21` [3,3-Dimethylanagrelide hydrobromide], the “Solubility in hydrochloric acid” value in [1] (0.1M HCl, pH 0.6) was 215 μg mL^−1. In series [1] (ammonium formate 50 mM, pH 7.9), the “Solubility in ammonium formate” value came out at 4 μg mL^−1. The “Solubility in water (pH 5.0)” value in series [1] (singly distilled water, pH 5.0) is 20 μg mL^−1.

For `O=C1[N-]C2=Nc3ccc(Cl)c(Cl)c3CN2C12CC2.[Na+]` [3,3,Spiro-Cyclopropyl-anagrelide sodium salt], in series [1] (0.1M HCl, pH 0.6), the “Solubility in hydrochloric acid” value is 28 μg mL^−1. Besides, the “Solubility in ammonium formate” value in [1] (ammonium formate 50 mM, pH 7.9) was 1 μg mL^−1. The “Solubility in water (pH 5.0)” value in series [1] (singly distilled water, pH 5.0) turned out to be 542 μg mL^−1.

On to `Cc1[nH]c(=O)c(C#N)cc1-c1ccncc1` [milrinone], for which the IC50 in [4] is 170 to 350 nM.

`C[C@H]1C(=O)NC2=Nc3ccc(Cl)c(Cl)c3CN21` [(S)-3-methyl anagrelide]: the “Anti-megakaryocytic activity (in words)” value in series [6] was “good anti-megakaryocytic activity”. In addition, the “PDE III inhibitory activity (in words)” value in series [7] is “significantly reduced PDE III inhibition relative to 3-OH anagrelide”.

For the compound `C=c1c(=O)[n-]c2n1Cc1c(ccc(Cl)c1Cl)N=2.[Na+]` [3-Methyleneanagrelide Na salt], in series [1] (0.1M HCl, pH 0.6), the “Solubility in hydrochloric acid” value came out at 189 μg mL^−1. Further, in [1] (ammonium formate 50 mM, pH 7.9), the “Solubility in ammonium formate” value came out at 39 μg mL^−1. Besides, in series [1] (singly distilled water, pH 5.0), the “Solubility in water (pH 5.0)” value is 1830 μg mL^−1.

Regarding `Br.O=C1NC2=Nc3ccc(Cl)c(Cl)c3CN2C12CC2` [3,3-spiro-Cyclopropyl-anagrelide hydrobromide], the “Solubility in hydrochloric acid” value in series [1] (0.1M HCl, pH 0.6) is recorded as 35 μg mL^−1. The “Solubility in ammonium formate” value in series [1] (ammonium formate 50 mM, pH 7.9) was 1 μg mL^−1. In addition, in series [1] (singly distilled water, pH 5.0), the “Solubility in water (pH 5.0)” value came to 2 μg mL^−1.

On to `CC1(C)C(=O)[N-]C2=Nc3ccc(Cl)c(Cl)c3CN21.[Na+]` [3,3-Dimethylanagrelide sodium salt], for which, in series [1] (0.1M HCl, pH 0.6), the “Solubility in hydrochloric acid” value is on record as 212 μg mL^−1. The “Solubility in ammonium formate” value in series [1] (ammonium formate 50 mM, pH 7.9) is recorded as 6 μg mL^−1. Further, the “Solubility in water (pH 5.0)” value in [1] (singly distilled water, pH 5.0) amounted to 409 μg mL^−1.

`O=C1CN2Cc3c(ccc(Cl)c3Cl)N=C2N1` [Anagrelide hydrochloride, 6,7-dichloro-1,5-dihydroimidazo[2,1-b]-quinazolin-2(3H)-one hydrochloride monohydrate, reference compound]: the solubility (in general, the dissolved amount per volume that the medium holds) at 20 min in series [1] (50 mM ammonium formate, aqueous buffer, ammonium formate 50 mM, pH 7.9, read-out: Solubility in ammonium formate (50 mM, pH 7.9)) is 10 µg/mL; in [1] (0.1 M hydrochloric acid, simulated gastric fluid, 0.1M HCl, pH 0.6, read-out: Solubility in hydrochloric acid (0.1M, pH 0.6)), 169 µg/mL; in [1] (singly distilled water, pH 5.0, read-out: Solubility in water (pH 5.0)), 11 µg/mL.

With `O=C1CN2Cc3c(ccc(Cl)c3Cl)N=C2N1` [Anagrelide, 6,7-dichloro-1,5-dihydroimidazo[2,1-b]-quinazolin-2(3H)-one hydrochloride monohydrate], the clearance (as a rule, a measure of how efficiently the substance is removed, as volume per time) in [2] (in vivo, after 1 mg/kg iv) is 19.3 mL/min/kg. The Vd in [2] (in vivo, after 1 mg/kg iv, read-out: Vss) stood at 1.011 ± 0.0038 L/kg. In addition, the half-life – broadly, the time in which the quantity being followed falls by half – in [2] (in vivo, intravenous, 1 mg/kg) is 1.37 h; in series [9] it was 1.25 h; in [10], 6.62 h. In addition, in series [2] (in vivo, intravenous, 1 mg/kg, read-out: AUC(0-t)), the AUC(0-t) came out at 101 ± 15 ng·h/mL. In addition, in [2] (in vivo, intravenous, 1 mg/kg, read-out: Cmax), the Cmax came out at 48.1 ± 21 ng/mL. The “Effect on erythroid or myelomonocytic differentiation (in words)” value in series [8] is on record as “does not affect erythroid or myelomonocytic differentiation”. Also, the First pass effect in series [3] (background) is reported as above 50%. Further, the IC50 was around 29 nM in [4]; 27 nM in series [6] (Homo sapiens, Platelet, Example 1 table, read-out: IC50 for anti-megakaryocytic (platelet lowering) activity); 26 nM in [6] (Homo sapiens, read-out: In vitro IC50 for anti-megakaryocytic effects (human cell-line)); 32 nM in series [7] (setting [13]); 29 nM in [7] (setting [14]). Also, in the series with heart rate, the ED50 (in general, the midpoint of the dose-response relation) is 0.986 mg/kg. For the same compound, the “In vivo ED20 for effects” value in the series with dog heart rate was 376 µg/kg.

For the compound `CC1(C)C(=O)NC2=Nc3ccc(Cl)c(Cl)c3CN21` [3,3 dimethyl anagrelide, 3,3-dimethylanagrelide], in series [2] (1 mg/kg), the “AUC(0-t)” value was 1903 ± 47 ng·h/mL, the Cmax is 167 ± 33 ng/mL and the T1/2 is given as 9.39 h. In addition, in series [2] (after 1 mg/kg iv), the CL came to 2.97 ± 0.765 mL/min/kg and the Vss (in general, the apparent volume that relates the amount in the body to the concentration in plasma or blood) came to 1.967 ± 0.024 L/kg. In series [9], the “In vitro "half-life" in dog hepatocytes” value is recorded as “No apparent degradation”. Also, in series [6] (setting [11]), the IC50 turned out to be 164 nM. The IC50 in [6] (setting [12]) turned out to be 166 nM. In the series on dog heart rate, the “In vivo ED20 for effects” value was 2,512 μg/kg and the “In vivo ED50 for effects on dog heart rate” value is recorded as 3,557 ug/kg μg/kg. Further, the IC50 in series [7] (setting [13]) was 166 nM. Also, the IC50 in series [7] (setting [14]) worked out at 164 nM. In addition, in series [10], the “In vitro "half-life" in human hepatocytes” value stood at 22.8 h.

For the compound `C[C@@H]1C(=O)NC2=Nc3ccc(Cl)c(Cl)c3CN21` [(R)-3-methyl anagrelide], the “Anti-megakaryocytic activity (in words)” value in series [6] is listed as “good anti-megakaryocytic activity”. The “PDE III inhibitory activity (in words)” value in series [7] was “significantly reduced PDE III inhibition relative to 3-OH anagrelide”.

In the case of `O=C1NC2=Nc3ccc(Cl)c(Cl)c3CN2C12CC2` [3-spirocyclo propyl anagrelide, 3,3,spiro-cyclopropyl-anagrelide], the IC50 amounted to 547 nM in [6] (setting [11]) and 797 nM in [7] (setting [13]).
